# Experimental data as given in patent publication US12351828B2, “Method for constructing hepatic progenitor cell-like cell bank, cell lines prepared therefrom and application thereof” (SHANGHAI CELLIVER BIOTECHNOLOGY CO., LTD., priority 2019, dated 2025).
# Tests used:
# Test in all cases: Erlotinib-specific hepatotoxicity, in vitro three-dimensional hepatocyte model, PrestoBlue cell viability
# Assay type in all cases: cell-based, human
# [1] = tested on: third hepatocyte model line; conditions: co-cultured 48 hours, 0.24-250 μMol/L, FIG. 6c
# Description: (§1) The in vitro three-dimensional hepatocyte model is constructed by using the hepatic progenitor cell-like cell bank. The method for constructing the in vitro three-dimensional hepatocyte model is stated in the “Expansion and Differentiation of Human Hepatocyte-derived Liver Progenitor-like Cells and Their Use for the Study of Hepatotropic Pathogens” published in Volume 29, Issue 1, 2018, Cell Research, and is not repeated here. In the process of constructing the in vitro three-dimensional hepatocyte model, a first hepatocyte model line, a second hepatocyte model line, a third hepatocyte model line, a fourth hepatocyte model line, a fifth hepatocyte model line and a sixth hepatocyte model line are obtained by the first immortal hepatic progenitor cell-like cell line, the second immortal hepatic progenitor cell-like cell line, the third immortal hepatic progenitor cell-like cell line, the fourth immortal hepatic progenitor cell-like cell line, the fifth immortal hepatic progenitor cell-like cell line and the sixth immortal hepatic progenitor cell-like cell line, respectively.
# (§2) In the embodiment of the present invention, the specific toxic drug Erlotinib is used to characterize the specific hepatotoxicity of the in vitro three-dimensional hepatocyte model.
# (§3) Preparing a Erlotinib solutions with concentrations of 250 μMol/L, 62.5 μMol/L, 15.625 μMol/L, 3.9 μMol/L, 0.97 μMol/L, 0.24 μMol/L by dimethyl sulfoxide (DMSO), and using DMSO as a blank reference.
# (§4) Each hepatocyte model line in the in vitro three-dimensional hepatocyte model is co-cultured with different concentrations of Erlotinib aqueous solution for 48 hours.
# (§5) After the co-culture is completed, the PrestoBlue™ cell viability testing reagent produced by Life Technologies is used to characterize the Erlotinib-specific hepatotoxicity in each culture obtained after the co-culture, respectively. The specific methods for the co-culture and the characterization of the Erlotinib-specific hepatotoxicity are common methods known by those skilled in the art and will not be repeated here.
# [2] = tested on: fourth hepatocyte model line; conditions: co-cultured 48 hours, 0.24-250 μMol/L, FIG. 6d
# Description: as §1, §2, §3, §4, §5
# [3] = tested on: fifth hepatocyte model line; conditions: co-cultured 48 hours, 0.24-250 μMol/L, FIG. 6e
# Description: as §1, §2, §3, §4, §5
# [4] = tested on: second hepatocyte model line; conditions: co-cultured 48 hours, 0.24-250 μMol/L, FIG. 6b
# Description: as §1, §2, §3, §4, §5
# [5] = tested on: sixth hepatocyte model line; conditions: co-cultured 48 hours, 0.24-250 μMol/L, FIG. 6f
# Description: as §1, §2, §3, §4, §5
# [6] = tested on: first hepatocyte model line; conditions: co-cultured 48 hours, 0.24-250 μMol/L, FIG. 6a
# Description: as §1, §2, §3, §4, §5
compound,measurement,setting,value
C#Cc1cccc(Nc2ncnc3cc(OCCOC)c(OCCOC)cc23)c1 [Erlotinib],cell viability with the increase in the concentration of Erlotinib solution,[1],significant downward trend
same,cell viability with the increase in the concentration of Erlotinib solution,[2],significant downward trend
same,cell viability with the increase in the concentration of Erlotinib solution,[3],basically does not significant changed
same,cell viability with the increase in the concentration of Erlotinib solution,[4],basically does not significant changed
same,cell viability with the increase in the concentration of Erlotinib solution,[5],basically does not significant changed
same,cell viability with the increase in the concentration of Erlotinib solution,[6],basically does not significant changed
